# According to paper PMC11922053 (Science Advances, 2025):
# Where a SMILES comes first, the peptide text is derived from it. Bridges are numbered along the chain shown (N, C = ends). [ ]: non-standard residue; d: D form. The star is where a group is joined. Biotin = O=C1N[C@H]2[C@H](CS[C@H]2CCCCC(=O)*)N1; 2Nal = N[C@@H](Cc1ccc2ccccc2c1)C(=O)O; Gly(cPent) = N[C@H](C(=O)O)C1CCCC1; Hyp = O=C(O)[C@@H]1C[C@@H](O)CN1; Pen = CC(C)(S)[C@H](N)C(=O)O; Api = NC1(C(=O)O)CCNCC1; Ahx = NCCCCCC(=O)O
# Test system: anti-hemagglutinin antibody clone 12ca5
# Assay: Biolayer interferometry
# Format: binding, mouse
# Settings: off-target control
structure (smiles),measurement,value
CC1(C)SSC[C@H](NC(=O)[C@H](CO)NC(=O)[C@@H](NC(=O)[C@H](CO)NC(=O)C2(NC(=O)[C@H](Cc3ccc4ccccc4c3)NC(=O)[C@H](CO)NC(=O)CCCCCNC(=O)[C@@H](N)CCCCNC(=O)CCCC[C@@H]3SC[C@@H]4NC(=O)N[C@@H]43)CCNCC2)C2CCCC2)C(=O)N2C[C@H](O)C[C@H]2C(=O)N[C@@H](CO)C(=O)N[C@@H](Cc2ccc(O)cc2)C(=O)N[C@@H](CO)C(=O)N[C@@H](CO)C(=O)N2C[C@H](O)C[C@H]2C(=O)N[C@@H]1C(=O)N[C@@H](CO)C(N)=O [NCBP-4 Ser Sub] (H-K(Biotin)[Ahx]S[2Nal][Api]S[Gly(cPent)]SC[Hyp]SYSS[Hyp][Pen]S-NH2; disulfide 9-16; N-terminus assumed),nonspecific binding to 12ca5 by BLI (in words),no affinity
